The experiment relates to Muc5AC mRNA in NCI-H292 cells. Kind of experiment: Muc5AC mRNA expression in NCI-H292 by real time PCR. Conditions: HAST 300 mU/mL, 24 hours. In kind it is cell-based, human. The procedure: NCI-H292 cells (purchased from ATCC) were suspended in 10% FCS-containing RPMI-1640 (produced by Gibco Corp.), sowed on a 96 well plate (produced by Falcon Corp.) in a density of 6.0×10^4 cells/cm^2, cultured for 72 hours, subjected to the replacement of the culture solution by RPMI-1640 containing 0.1% of BSA, and further cultured for 24 hours.
Before added to the cells, leupeptin in various concentrations was reacted with 300 mU/mL of HAST on ice for 30 minutes, and further heated at 37° C. Then, the culture solution in the wells was wholly exchanged by the culture medium containing the HAST or leupeptin to start the treatment, and the treatment was carried out for 24 hours. HAST (300 mU/mL) thermally treated at 99° C. for 10 minutes as a control, EGF alone (1 ng/mL), and a combination of EGF (5 ng/mL) with leupeptin (10^−5 M) were also similarly treated. The number of the samples was 3.
An EGF treatment sample was continuously diluted five times to prepare a standard. […]
(§1) For both the Muc5AC and the β-actin, the expression quantities of the samples were relatively compared from the obtained Ct values and the standard straight line. […]
as §1
For orientation: In qPCR the cycle at which signal appears reflects the starting amount.

Results on one substance are retold here after US20040038369A1, “Airway-specific trypsin-like enzymes and method of using the same” (priority 2000, published 2004).

Consider “HAST: human airway-specific trypsin-like enzyme; propeptide moiety bound to trypsin-like protein moiety via a disulfide bond”, for which the Muc5AC gene expression result was “promoted”.
